# Literature values, collected in patent publication US20220331213A1, “ANTIMICROBIAL COMPOSITIONS COMPRISING A BENZOIC ACID ANALOG AND ACID PH BUFFERS” (eHealth Nexus LLC, priority 2021, published 2022).
# What was measured:
# [1] = for pK2 / pK1: aqueous; for pK2: second dissociation of di-/polycarboxylic acid; for pK1: first dissociation of di-/polycarboxylic acid; for pKa (acid dissociation constant): aqueous pKa
# rhinovirus = settings: 2% salicylic acid on skin
smiles,measurement,setting,value
O=C(O)CCCCC(=O)O [adipic acid],pK2,[1],about 5.4
O=C(O)CC(O)(CC(=O)O)C(=O)O [citric acid],pK1,[1],about 2.9
O=C(O)CCCC(=O)O [glutaric acid],pKa (acid dissociation constant),[1],3.76
same,pK1,[1],about 4.3
same,pK2,[1],about 5.4
O=C(O)CO [glycolic acid],pKa (acid dissociation constant),[1],~3.8
O=C(O)c1ccccc1O [salicylic acid],residual anti-rhinovirus activity on the skin,rhinovirus,diminish over 3 hours
O=C(O)[C@H](O)[C@@H](O)[C@H](O)[C@H](O)CO [gluconic acid],pKa (acid dissociation constant),[1],3.85
O=C(O)c1cccnc1 [nicotinic acid],pKa (acid dissociation constant),[1],4.82
